Measurements published in PMC7456892 (Frontiers in Plant Science, 2020).
Entries after “also recorded” stand apart in the source; their conditions may differ. Where no end group is shown, it is not given here.

Legend:
pepsin [1] = test: SGF (200 mg NaCl, 10 units pepsin/µg test protein, pH 1.2); conditions: 37°C, up to 60 min
C. graminicola = assay type: cell-based, Colletotrichum graminicola isolate Carroll-1A-99; conditions: growth assay, 25°C, dark, 40 h, OD 595 nm
F. graminearum = assay type: cell-based, Fusarium graminearum isolate 73B1A; conditions: growth assay, 25°C, dark, 24 h, OD 595 nm
pepsin [2] = target: pepsin (Sus scrofa, UniProt P00791); test: Simulated Gastric Fluid (SGF) pepsin digestion assay; assay type: in vitro ADME; conditions: pH 1.2
Description: Protein samples were analyzed for degradation by SDS PAGE followed by staining with RAPIDStain (Calbiochem) for 1 h after intense washing with ultrapure water. Digestion products from the SGF assays were analyzed by Matrix-assisted laser desorption/ionization time of flight (MALDI TOF) mass spectrometry. Samples were pre-incubated with 0.5 μl of 40 mM DTT for 20 min on the ground steel plate to reduce disulfide bonds. The samples were subsequently mixed with 2,5-dihydroxybenzoic acid (DHB) and the mass to charge ratio was measured for each sample using a Bruker Daltonics Ultraflex III MALDI-TOF/TOF Mass Spectrometer.

pancreatin = conditions: 37°C, up to 60 min

Sequence of pepsin (Sus scrofa, UniProt P00791) (P00791 60-385): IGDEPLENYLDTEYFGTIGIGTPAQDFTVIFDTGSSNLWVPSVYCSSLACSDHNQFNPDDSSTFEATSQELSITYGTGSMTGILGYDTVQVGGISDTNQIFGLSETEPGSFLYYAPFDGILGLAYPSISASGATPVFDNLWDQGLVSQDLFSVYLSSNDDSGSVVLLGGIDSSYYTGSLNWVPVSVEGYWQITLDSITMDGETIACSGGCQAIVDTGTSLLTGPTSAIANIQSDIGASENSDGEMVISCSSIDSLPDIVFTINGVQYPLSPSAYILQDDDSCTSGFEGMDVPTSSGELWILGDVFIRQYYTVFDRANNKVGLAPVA
Description for trypsin (pancreatin): Aliquots (320 µl) of each of SIF (60 mM KH2PO4, pH 7.5, 12 mg/ml pancreatin), SIF minus pancreatin and ultrapure water were added to individual glass vials with stir bars on a submersible stir plate (2mag MIX drive, Sigma Aldrich) in a 37°C water bath for 2 min before the addition of 40 µl of test protein (5 mg/ml) to each vial. Azoalbumin (A-2382, Sigma Aldrich) at a final concentration of 10 mg/ml in ultrapure water was used as the positive control for protease digestion. Protein degradation was assessed by SDS PAGE as described above.

Substance	not cleaved (pepsin [1])	cleaved bond (pepsin [1])	further results
KDCLTRRHGFQGRCLFDRQCAHVCRSDGFIGGQCRGPLRKCFCSRPC	stable in the SGF assay for more than 60 min		
NaD1-C3S-C47S: NaD1 variant lacking the Cys3-Cys47 (fourth) disulfide bond (RESKTESNTFPGICITKPPCRKACISEKFTDGHCSKILRRCLCTKPS; not fully specified; ends and bridges not checked; UniProt Q8GTM0 26-72, looked up, variant C3S C47S)			Antifungal activity against C. graminicola compared with wild type defensin, in words (C. graminicola): as active as unmodified NaD1; Size of peptides after digestion in SIF (trypsin (pancreatin)): less than 2300 Da; Antifungal activity against F. graminearum compared with wild type defensin, in words (F. graminearum): as active as unmodified NaD1; Digestion in SGF, result in words (pepsin [2]): partially digested
NaD1: class II plant defensin from the ornamental tobacco Nicotiana alata, purified from flowers (RECKTESNTFPGICITKPPCRKACISEKFTDGHCSKILRRCLCTKPC; ends and bridges not checked; cysteine pairing not given here; UniProt Q8GTM0 26-72, looked up)			Mass of fragments Da at 60 min (pepsin [2]): 5296 Da
RECKTESHRFKGPCITKPPCRKACISEFFTDGHCSKILRRCLCTKPC		F28-F29, 10 min; also recorded: T16-K17, 10 min	
RECKTESHRFKGPCITKPPCRKACISEKFTDGHCSKILRRCLCTKPC	not degraded in SGF (60 min)		
RECKTESNTFPGICITKPPCRKACISEKFTDGHCSKILRRCLCTKPC	stable in the SGF assay for more than 60 min; also recorded: not cleaved		not cleaved (pancreatin): not digested by SIF (60 min)
RECKTESRAFALECITKPPCRKACISEKFTDGHCSKILRRCLCTKPC		A9-F10, 60 min	
RESKTESRAFALECITKPPCRKACISEFFTDGHCSKILRRCLCTKPS		A9-F10, within 1 minute; also recorded: F28-F29, within 1 minute	
